# Test results from paper PMC5068747, “Using C. elegans Forward and Reverse Genetics to Identify New Compounds with Anthelmintic Activity” (PLoS Neglected Tropical Diseases, 2016).
# pIC50: −log10 of the molar value. Values joined by “and” are separate entries in the source; they are usually repeats but may differ in a detail not shown here. Identical values can stand only once.
# Assays:
# Meloidogyne hapla J2 = assay: Immobilization of infective second-stage juveniles (J2) of Meloidogyne hapla; format: in vivo
# Experimental: A laboratory population of the plant-parasitic northern root-knot nematode, Meloidogyne hapla, was initiated by inoculating a tomato seedling growing in a 500 ml pot of 50:50 pasteurized sandy soil:peat with ~100 infective second-stage juveniles (J2) extracted from infested soil from a vineyard in the Okanagan Valley. The population was thereafter reared on tomato under greenhouse conditions. Prior to experimentation, galled roots were removed from heavily infested tomato plants, washed over a sieve with tap water, and then placed on Baermann funnels. J2 hatchings over the first three days were collected and suspended in tap water at a concentration of 100 J2/ml. Replicate 24-well cell culture plates were seeded with 0.2 ml of J2 suspension. Dilutions of CID 2747322 in distilled water were then added to the wells to result in four replicate wells of each of six concentrations in each plate. Concentrations tested spanned 0 to 320 μM and 0 to 160 μM in the two separate runs of the experiment. Nematodes were observed using an inverted microscope at 40X. On each observation date, a transect through each well was observed and J2 within the transect were scored as mobile or immobile. J2 that had taken on a straight posture were scored as immobile. Recently hatched J2 of M. hapla normally move continuously but slowly and always have a curved posture.
# Supplementary file pntd.0005058.s005.pdf: S5 Fig Dosage curve for effects on Meloidogyne hapla of CID 2747322. The percentage of immobilization of infective juveniles of Meloidogyne hapla was measure after ten days of exposure to the compound. Data are from two separate trials testing 0–320 and 0–160 μM concentration ranges, respectively, with each point representing the mean of twelve test wells. (PDF) Click here for additional data file.
# [1] = test system: C. elegans CB3474 (ben-1(e1880), benomyl resistant); assay: IC50 on benzimidazole resistant C. elegans strain; format: in vivo, Caenorhabditis elegans; conditions: Caenorhabditis elegans, 120 h; 5 days exposure, 2 L4 per well, three biological replicates
# C. briggsae = assay: Dosage curve on C. briggsae; format: in vivo; conditions: Caenorhabditis briggsae, 120 h; two L4 per well, five days of exposure
# Text: Supplementary file pntd.0005058.s004.pdf: S4 Fig Dosage curve for effects on C. briggsae of CID 2747322. Two L4 C. briggsae animals were placed into each well of a 96-well pate for five days of exposure to CID 2747322. […] (PDF) Click here for additional data file.
# [2] = test system: Human embryonic kidney (HEK293) cells; assay: HEK293 viability, MTT colorimetric assay; format: cell-based; conditions: Homo sapiens, read-out: Mammalian IC50
# Experimental: Potential anthelmintic compounds identified from primary screening were further tested against mammalian cells and yeast to determine whether they had deleterious effects in those organisms. Human embryonic kidney (HEK293) cells were grown in Dulbecco’s Modified Eagle’s Medium (DMEM; Sigma) containing 5% fetal bovine serum (FBS; Sigma) in 96-well plates tissue culture plates. Compounds were added 24h post-plating at 10, 30, 100, or 300 μM final concentrations. Dimethyl sulfoxide (DMSO) was used as a negative control at 0.1%. Cells were treated for 24 or 48 hours, after which time viability was assessed using a 3-(4,5-dimethylthiazol-2-yl)-2,5-diphenyltetrazolium bromide (MTT) colorimetric assay. Percent viability was determined by comparing treatment values to DMSO control values.
# [3] = test system: C. elegans mitochondrial complex II (mev-1, sdha-1, sdhb-1, sdhd-1) mutant strains; assay: Resistance of mitochondrial complex II mutant MMP strains to CID 2747322; format: in vivo, Caenorhabditis elegans
# Text: CID 2747322 shares some structural similarity to the WACT-11 compound identified by. […] This led us to examine MMP strains with mutations in the other three mitochondrial complex II subunits; sdha-1, sdhb-1 and sdhd-1, to see if any of these strains are also resistant to CID 2747322. For thirteen strains with sdha-1 missense mutations, three are resistant. For eight strains with sdhb-1 missense mutations, two are resistant. For sdhd-1, one of five MMP strains is resistant (Table 5). To better understand how these different alleles might alter drug effectiveness, we mapped all of these mutations plus gk3613 onto an X-ray resolved protein crystal structure of the mitochondrial complex II of Ascaris suum (PDB: 3VRB) (Fig 3a).
# [4] = test system: C. elegans DA1316 (avr-14(ad1302); avr-15(vu227); glc-1(pk54), ivermectin resistant); assay: IC50 on ivermectin resistant C. elegans strain; format: in vivo, Caenorhabditis elegans; conditions: Caenorhabditis elegans, 120 h; 5 days exposure, 2 L4 per well, three biological replicates
structure (smiles),measurement,setting,value
"COc1ccc(OCCNC(=O)c2ccccc2C(F)(F)F)cc1 [CID 2747322, N-[2-(4-methoxyphenoxy)ethyl]-2-(trifluoromethyl)benzamide]",immobilization of M. hapla J2,"Meloidogyne hapla J2; 160 and 320 μM, 24 hours after exposure initiation, increased through day 10",Immobilization was observed
same,IC50,"Meloidogyne hapla J2; Meloidogyne hapla, 240 h, 10 day exposure",129 µM and 44 µg/mL
same,survival of M. hapla,Meloidogyne hapla J2; extended exposure,die after extended exposure
same,pIC50,[1],5.40
same,pIC50,C. briggsae,4.80
same,pIC50,[2],3.77
same,Resistance,"[3]; strain VC20295, sdhd-1 A30V",none
same,Resistance,"[3]; strain VC20401, sdhb-1 S209L",resistant
same,Resistance,"[3]; strain VC20417, sdha-1 E305K",none
same,Resistance,"[3]; strain VC20501, mev-1 S178N",none
same,Resistance,"[3]; strain VC20587, sdhb-1 E294K",none
same,Resistance,"[3]; strain VC20602, mev-1 G77S",resistant
same,Resistance,"[3]; strain VC30090, sdha-1 G363E",sensitive
same,Resistance,"[3]; strain VC30107, sdha-1 S292T",sensitive
same,Resistance,"[3]; strain VC30120, sdhd-1 L59F",none
same,Resistance,"[3]; strain VC40073, sdha-1 S142F",sensitive
same,Resistance,"[3]; strain VC40186, sdhb-1 D192E",none
same,Resistance,"[3]; strain VC40193, sdhb-1 T285I",resistant
same,Resistance,"[3]; strain VC40304, sdha-1 P385S",none
same,Resistance,"[3]; strain VC40350, sdha-1 V131I",none
same,Resistance,"[3]; strain VC40364, sdhb-1 N118I",sensitive
same,Resistance,"[3]; strain VC40386, sdhd-1 A97V",resistant
same,Resistance,"[3]; strain VC40391, sdha-1 G335E",resistant
same,Resistance,"[3]; strain VC40423, sdhb-1 I280S",sensitive
same,Resistance,"[3]; strain VC40533, sdha-1 R482C",resistant
same,Resistance,"[3]; strain VC40570, sdhd-1 L120F",none
same,Resistance,"[3]; strain VC40576, sdha-1 D317N",sensitive
same,Resistance,"[3]; strain VC40631, sdha-1 H504Y",none
same,Resistance,"[3]; strain VC40752, sdhb-1 A34V",sensitive
same,Resistance,"[3]; strain VC40764, sdha-1 A425V",sensitive
same,Resistance,"[3]; strain VC40765, sdhb-1 L197F",none
same,Resistance,"[3]; strain VC40770, sdha-1 E472K",none
same,Resistance,"[3]; strain VC40781, mev-1 Y152D",resistant
same,Resistance,"[3]; strain VC40799, mev-1 R52C",none
same,Resistance,"[3]; strain VC40903, sdhd-1 D36N",none
same,Resistance,"[3]; strain VC40934, mev-1 G88E",none
same,Resistance,"[3]; strain VC41025, sdha-1 S570F",sensitive
same,pIC50,[4],4.80
